Data reported in paper PMC6352943, “Novel pyrazolo[3,4-d]pyrimidines: design, synthesis, anticancer activity, dual EGFR/ErbB2 receptor tyrosine kinases inhibitory activity, effects on cell cycle profile and caspase-3-mediated apoptosis” (Journal of Enzyme Inhibition and Medicinal Chemistry, 2019).

Experiments:
CAKI-1 = experiment: NCI 60 cell line single dose screen (SRB); assay type: cell-based; conditions: Homo sapiens; CAKI-1 (renal cancer), single dose 10^−5 M, 48 h; read-out: Growth inhibition percentage
Procedure, shortened: (§1)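 Cells were plated and grown 24 h at 37 °C, 5% CO2 before compound addition from DMSO stock, then exposed 48 h. Adherent cells were fixed with cold TCA (final 10%) and suspension cells with 16% TCA. SRB-stained protein was read at 515 nm and percent growth was calculated against time-zero and untreated plates.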

UACC-62 = experiment: NCI 60 cell line single dose screen (SRB); assay type: cell-based; conditions: Homo sapiens; UACC-62 (melanoma), single dose 10^−5 M, 48 h; read-out: Growth inhibition percentage
Procedure, shortened: as §1

NCI-H460 = experiment: MTT cell viability assay; assay type: cell-based, human
Method: (§2) Cell Line cells were obtained from American Type Culture Collection, cells were cultured using Dulbecco's Modified Eagle's medium (DMEM) (Invitrogen/Life Technologies) supplemented with 10% foetal bovine serum (FBS) (Hyclone), 10 μg/mL of insulin (Sigma), and 1% penicillin-streptomycin. All of the other chemicals and reagents were from Sigma, or Invitrogen. Plate cells (cells density 1.2 – 1.8 × 10,000 cells/well) in a volume of 100 µL complete growth medium and 100 μL of the tested compound per well in a 96-well plate for 24 h before the MTT assay.
(§3) Remove culture medium to a centrifuge tube. […] Add 2.0 to 3.0 ml of Trypsin EDTA solution to flask and observe cells under an inverted microscope until cell layer is dispersed. Add 6 to 8 ml of complete growth medium and aspirate cells by gently pipetting. Transfer the cell suspension to the centrifuge tube with the medium and centrifuge for 5 to 10 min. Discard the supernatant. Resuspend the cell pellet in fresh growth medium. Add appropriate aliquots of the cell suspension to new culture vessels. Incubate cultures at 37 °C for 24 h. After treatment of cells with the serial concentrations of the compound to be tested incubation is carried out for 48 h at 37 °C, then the plates are to be examined under the inverted microscope and proceed for the MTT assay.
(§4) The 3–(4, 5-dimethylthiazol-2-yl)-2,5-diphenyltetrazolium bromide (MTT) method[30] of monitoring in vitro cytotoxicity is well suited for use with multiwell plates. The assessment of cell population growth is based on the capability of living cells to reduce the yellow product MTT to a blue product, formazan, by a reduction reaction occurring in the mitochondria. The five cell lines were incubated for 24 h in 96-microwell plates. The number of living cells in the presence or absence (control) of the various test compounds is directly proportional to the intensity of the blue colour, measured by spectrophotometry using (ROBONIK P2000 Spectrophotometer) at a wavelength of 570 nm. Measure the background absorbance of multiwell plates at 690 nm and subtract from the 570 nm measurement. Five concentrations ranging from 0.01 μM to 100 μM (with semi-log decrease in concentration) were tested for each of the compounds under study. Each experiment was carried out in triplicate. The IC50 values [the concentration required for 50% inhibition of cell viability] were calculated using sigmoidal dose response curve-fitting models.

ACHN = experiment: MTT cell viability assay; assay type: cell-based, human
Method: as §2, §3, §4

OVCAR-4 = experiment: MTT cell viability assay; assay type: cell-based, human
Method: as §2, §3, §4

Row | SMILES | inhibition at 10 µM (CAKI-1) [%] | inhibition at 10 µM (UACC-62) [%] | IC50 (NCI-H460; Homo sapiens, NCI-H460 lung cancer, MTT, 48 h, mean ± SD of three experiments, read-out: IC50 (concentration required for 50% inhibition of cell viability)) [µM] | Potency relative to Erlotinib (fold more potent) (NCI-H460; NCI-H460, from IC50 values) [fold] | Potency relative to Erlotinib (fold more potent) (ACHN; ACHN, from IC50 values) [fold] | IC50 (ACHN; Homo sapiens, ACHN renal cancer, MTT, 48 h, mean ± SD of three experiments, read-out: IC50 (concentration required for 50% inhibition of cell viability)) [µM] | IC50 (OVCAR-4; Homo sapiens, OVCAR-4 ovarian cancer, MTT, 48 h, mean ± SD of three experiments, read-out: IC50 (concentration required for 50% inhibition of cell viability)) [µM] | Potency relative to Erlotinib (fold more potent) (OVCAR-4; OVCAR-4, from IC50 values) [fold]
1 | Cc1nn(-c2ccc(F)cc2)c2ncnc(Cl)c12 [Compound 6, 4-Chloro-1–(4-fluorophenyl)-3-methyl-1H-pyrazolo[3,4-d]pyrimidine] | 1.02 | 12.6 | – | – | – | – | – | –
2 | Cc1nn(-c2ccc(F)cc2)c2ncnc(Nc3ccc(F)c(Cl)c3)c12 [Compound 7d, N-(3-Chloro-4-fluorophenyl)-1–(4-fluorophenyl)-3-methyl-1H-pyrazolo[3,4-d] pyrimidin-4-amine] | – | – | 4.44 ± 0.26 | 1.9 | 2.2 | 5.53 ± 0.31 | 1.74 ± 0.06 | 1.6
